Assay results reported in article PMC12305494, “Discovery of PXR Antagonist MI891 and PXR Degrader MI1013 and Their Roles in Hepatic Gene Regulation” (Journal of Medicinal Chemistry, 2025).

Tests used:
PXR-HiBiT = target: T1, PXR-HiBiT (Homo sapiens, UniProt O75469+Q96SW2); assay: Nano-Glo HiBiT lytic assay in HepG2 cells; format: cell-based; conditions: HepG2, 10 μM, 8 h, 0.3 ng PXR-HiBiT vector
T1 construct: host or cells: HepG2
Procedure: For HiBiT assay, HepG2 cells (40,000 cells/well) were seeded in a 48-well plate. The following day, cells were transfected with 0.3–100 ng of PXR-HiBiT (GenScript-HiBiT_NR1I2_OHu23779D_pcDNA3.1+/C-(K)-DYK) and 0.3–100 ng of CRBN (GenScript-CRBN_OHu21180D_pcDNA3.1+/C-(K)-DYK) in a 1:1 ratio using Lipofectamine 3000 (ThermoFisher Scientific), following the manufacturer’s protocol. After 24 h, cells were treated with varying concentrations of MI1013, and vehicle (0.1% DMSO). The plates were incubated for 8 h, and the HiBiT NanoLuc signal was measured using the Nano-Glo HiBiT Lytic Detection System (Promega; […]) in a Synergy microplate reader (Biotek) under luminescence mode with a read time of 0.2 s/well, gain set as auto, and integration time 2 s. Results are reported as relative abundance or response (%) change relative to DMSO control cells. […] The DC50 value was calculated using a curve fit–log(inhibitor) vs response–with a variable slope (four-parameter) logistic fitting using GraphPad Prism.

eGFP-tagged PXR = target: T2, eGFP-tagged PXR (Homo sapiens, UniProt O75469+Q96SW2); assay: Fluorescence (eGFP) intensity assay in COS-1 cells; format: cell-based; conditions: 24 h
T2 construct: host or cells: COS-1
T2 sequence (O75469 whole entry): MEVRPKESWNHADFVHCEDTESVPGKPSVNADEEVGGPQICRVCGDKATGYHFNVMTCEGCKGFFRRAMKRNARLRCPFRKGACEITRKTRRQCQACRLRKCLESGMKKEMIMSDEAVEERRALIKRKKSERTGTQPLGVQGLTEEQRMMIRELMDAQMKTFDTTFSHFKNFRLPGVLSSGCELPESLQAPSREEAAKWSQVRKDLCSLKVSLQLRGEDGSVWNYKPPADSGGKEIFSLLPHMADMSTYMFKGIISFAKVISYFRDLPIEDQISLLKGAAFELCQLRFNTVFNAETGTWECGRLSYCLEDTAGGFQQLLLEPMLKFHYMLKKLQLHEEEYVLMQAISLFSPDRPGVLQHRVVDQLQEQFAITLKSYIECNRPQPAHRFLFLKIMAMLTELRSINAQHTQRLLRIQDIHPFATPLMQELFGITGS
T2 sequence (Q96SW2 whole entry): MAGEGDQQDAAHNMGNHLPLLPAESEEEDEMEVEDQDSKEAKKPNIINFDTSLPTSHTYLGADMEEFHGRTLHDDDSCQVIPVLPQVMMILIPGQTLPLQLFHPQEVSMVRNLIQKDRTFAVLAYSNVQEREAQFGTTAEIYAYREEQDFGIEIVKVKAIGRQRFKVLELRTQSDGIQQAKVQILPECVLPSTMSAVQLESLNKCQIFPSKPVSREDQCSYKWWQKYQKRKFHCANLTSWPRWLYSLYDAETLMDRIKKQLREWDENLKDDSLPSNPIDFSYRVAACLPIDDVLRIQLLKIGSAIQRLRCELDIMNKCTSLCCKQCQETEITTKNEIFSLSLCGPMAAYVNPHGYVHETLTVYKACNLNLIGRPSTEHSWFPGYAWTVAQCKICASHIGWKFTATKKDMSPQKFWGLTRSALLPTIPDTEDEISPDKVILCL
Procedure: COS-1 cells were transfected with 150 ng of PXR-eGFP (NR1I2_pcDNA3.1(+)-N-eGFP, GenScript Biotech) and 150 ng of CRBN (GenScript - CRBN_OHu21180D_pcDNA3.1+/C-(K)-DYK) in a 48-well plate using Lipofectamine 3000, following the manufacturer’s protocol. After 24 h, the transfected cells were treated with varying concentrations of the MI1013 compound and incubated for another 24 h. The eGFP fluorescence was then checked and imaged using the Invitrogen EVOS imaging system. Fluorescence intensity was measured using the Spark Multimode Microplate Reader (V2.2) in Fluorescence Intensity Scan Top Reading mode. The excitation wavelength was set between 440 and 500 nm, and the emission wavelength was set at 545 nm (Monochromator), with a gain of 100 and an integration time of 40 μs. Graphs were generated using GraphPad Prism.

RXRα = assay: Western blot of RXRα in HepaRG cells; format: cell-based, human; conditions: 24 h
Procedure: The harvested HepaRG cells were lysed in RIPA lysis buffer (Cat. no 89900, Thermo Scientific) containing Halt protease inhibitor cocktail inhibitors (Thermo Scientific). Protein concentration was measured using the Pierce BCA Protein Assay Kit (Cat. no. 23225, Thermo Scientific), samples were diluted in 4 × Laemmli sample buffer (Cat. no. 1610747, BioRad) supplemented with mercaptoethanol and heated at 95 °C for 5 min. Equal amounts of protein were loaded in 4–20% Mini-PROTEAN TGX Stain-Free Protein Gels (12 well. cat. no. 4561095 or 15 well, cat. no. 4568096, Bio-Rad), electrophorised, and transferred onto Trans-Blot Turbo Midi-size PVDF Membrane (cat. no. 1704273, Bio-Rad), and blocked with EveryBlot Blocking buffer for 10 min (cat. no. 12010020, Bio-Rad). […] Chemiluminescence signals were detected using SuperSignal West Femto Maximum Sensitivity Substrate (cat. no. 34096, Thermo Scientific) and visualized by the ChemiDoc MP Imaging system (Universal Hood III, #731BR02821, Bio-Rad), and the bands were quantified using β-actin (1:2000, recombinant rabbit conjugated monoclonal antibody (JF53-10), cat. no. MA5-32540, Invitrogen) as loading control with ImageJ (version 1.54g) software.

PXR LBD = target: T3, PXR LBD (Homo sapiens, UniProt O75469); assay: LanthaScreen TR-FRET PXR competitive binding assay; conditions: recombinant PXR LBD, competition with tracer
T3 construct: purchased Thermo Fisher Scientific PV4839
T3 sequence (O75469 146-433 limits assumed): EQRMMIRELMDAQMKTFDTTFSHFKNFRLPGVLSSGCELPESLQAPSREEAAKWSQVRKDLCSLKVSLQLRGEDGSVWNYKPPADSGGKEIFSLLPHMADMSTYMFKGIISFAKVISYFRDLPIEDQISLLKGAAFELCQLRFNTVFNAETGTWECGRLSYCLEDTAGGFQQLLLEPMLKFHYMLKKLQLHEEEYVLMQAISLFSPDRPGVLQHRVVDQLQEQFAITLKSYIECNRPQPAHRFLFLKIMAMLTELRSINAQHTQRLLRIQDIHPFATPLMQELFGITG
Procedure: (§1) We utilized the LanthaScreen TR-FRET CAR Coactivator Binding Assay Kit, goat (Thermo Fisher Scientific, Cat. No. PV4836), which includes GST-tagged human CAR LBD and a fluorescein-labeled PGC1α coactivator peptide. The assay was performed with slight modifications to the manufacturer’s protocol, as previously reported. […] The interaction with the PXR ligand-binding domain (LBD) was assessed using the LanthaScreen TR-FRET PXR Competitive Binding Assay (Thermo Fisher Scientific, PV4839), as previously described. This assay quantifies the ability of test compounds to displace a fluorescent PXR ligand from the receptor. Fluorescence readings were taken on a Synergy 2 Multi-Mode Microplate Reader (BioTek, Winooski, VT). The half-maximal inhibitory concentration (IC50) for PXR LBD was calculated from at least eight data points using GraphPad Prism software.

human CAR LBD = target: T4, human CAR LBD (Homo sapiens, UniProt Q14994); assay: LanthaScreen TR-FRET CAR Coactivator assay; format: biochemical; conditions: nb = no binding
T4 sequence (Q14994 103-352): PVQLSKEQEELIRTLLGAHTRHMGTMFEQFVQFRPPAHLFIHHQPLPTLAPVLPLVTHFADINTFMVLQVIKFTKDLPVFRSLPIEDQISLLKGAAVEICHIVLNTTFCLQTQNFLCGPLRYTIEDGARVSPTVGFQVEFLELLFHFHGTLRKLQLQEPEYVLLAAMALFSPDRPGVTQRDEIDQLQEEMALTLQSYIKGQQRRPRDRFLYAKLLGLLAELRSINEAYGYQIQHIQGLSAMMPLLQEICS
Procedure: as §1

T1 sequence (O75469 whole entry): as the sequence (O75469 whole entry) above
T1 sequence (Q96SW2 whole entry): as the sequence (Q96SW2 whole entry) above

| Compound | PXR-HiBiT degradation (PXR-HiBiT) | degradation of eGFP-tagged PXR (loss of fluorescence) (eGFP-tagged PXR) | RXRα degradation (RXRα) | binding to PXR LBD compared to MI1011B and SR12813 (PXR LBD) | CAR TR-FRET (EC50, μM) (human CAR LBD; listed as 11 (MI891)) | CAR TR-FRET (EC50, μM) (human CAR LBD; listed as MI891) |
| --- | --- | --- | --- | --- | --- | --- |
| N-(4-((1-(2,5-dimethoxyphenyl)-5-methyl-1H-1,2,3-triazol-4-yl)sulfonyl)phenyl)-3-(2-(2-(2-(4-(((2-(2,6-dioxopiperidin-3-yl)-1,3-dioxoisoindolin-4-yl)amino)methyl)-1H-1,2,3-triazol-1-yl)ethoxy)ethoxy)ethoxy)propenamide [Compound 36] | confirmed PXR degradation | dose-dependent degradation of eGFP-tagged PXR | does not degrade | weaker binding to PXR LBD |  |  |
| NC(=O)c1cc(Cn2cc(-c3c(-c4ccc(Cl)cc4)nc4c(F)cc(F)cn34)nn2)ccc1Cl [Compound 11, 2-Chloro-5-((4-(2-(4-chlorophenyl)-6,8-difluoroimidazo[1,2-a]pyridin-3-yl)-1H-1,2,3-triazol-1-yl)methyl)-benzamide] |  |  |  |  | nb | no binding activity |
